pIC50, pKd: −log10 of the molar value. Structures can show the parent of a compound that is named as a salt. Starred links: 1 amine or outer side, 2 acyl side, 3 side chain; linkers in the order of their positions; H or OH if unused. Non-standard residues stand in square brackets, D forms with d. Residues, ends and D or L forms follow the SMILES beside them. Groups on a side chain read outwards from the residue. *: point of attachment. COpipzaa = 4-(carboxymethyl)piperazine-1-carbonyl, O=C(O)CN1CCN(C(=O)*)CC1; F(4amPEG2NHRDOTAGA-Ga) = Phe with 4-aminomethyl-PEG2-NH-DOTAGA, Ga complex; hS(Pr) = O-propyl-L-homoserine, CCCOCC[C@H](N[*:1])C(=O)[*:2]; DOTA = O=C(O)CN1CCN(CC(=O)O)CCN(CC(=O)*)CCN(CC(=O)O)CC1; Trp(7-Cl) = N[C@@H](Cc1c[nH]c2c(Cl)cccc12)C(=O)O; Phe(4-CH2NH2) = NCc1ccc(C[C@H](N)C(=O)O)cc1; Piperazinyl(4-CH2COOH) = O=C(O)CN1CCN(*)CC1; 3Pal(6-NH2) = Nc1ccc(C[C@H](N)C(=O)O)cn1; AEF = NCCOc1ccc(C[C@H](N)C(=O)O)cc1; NMeF = CN[C@@H](Cc1ccccc1)C(=O)O; Ahp(2) = CCCCC[C@H](N)C(=O)O; Orn = NCCC[C@H](N)C(=O)O; AEEA = NCCOCCOCC(=O)O; CO = O=C([*:1])[*:2]
Columns and labels:
[1] = biological target: T1, mouse FAP (Mus musculus, UniProt P97321); assay: Surface plasmon resonance (SPR) for peptide affinity, mouse FAP; type: binding
T1 construct: biotinylated His, Avi tag, mouse FAP (26-761, FAP-M82Q5); His; Avi tag (biotinylated); purchased AcroBiosystems FAP-M82Q5
T1 sequence (P97321 26-761): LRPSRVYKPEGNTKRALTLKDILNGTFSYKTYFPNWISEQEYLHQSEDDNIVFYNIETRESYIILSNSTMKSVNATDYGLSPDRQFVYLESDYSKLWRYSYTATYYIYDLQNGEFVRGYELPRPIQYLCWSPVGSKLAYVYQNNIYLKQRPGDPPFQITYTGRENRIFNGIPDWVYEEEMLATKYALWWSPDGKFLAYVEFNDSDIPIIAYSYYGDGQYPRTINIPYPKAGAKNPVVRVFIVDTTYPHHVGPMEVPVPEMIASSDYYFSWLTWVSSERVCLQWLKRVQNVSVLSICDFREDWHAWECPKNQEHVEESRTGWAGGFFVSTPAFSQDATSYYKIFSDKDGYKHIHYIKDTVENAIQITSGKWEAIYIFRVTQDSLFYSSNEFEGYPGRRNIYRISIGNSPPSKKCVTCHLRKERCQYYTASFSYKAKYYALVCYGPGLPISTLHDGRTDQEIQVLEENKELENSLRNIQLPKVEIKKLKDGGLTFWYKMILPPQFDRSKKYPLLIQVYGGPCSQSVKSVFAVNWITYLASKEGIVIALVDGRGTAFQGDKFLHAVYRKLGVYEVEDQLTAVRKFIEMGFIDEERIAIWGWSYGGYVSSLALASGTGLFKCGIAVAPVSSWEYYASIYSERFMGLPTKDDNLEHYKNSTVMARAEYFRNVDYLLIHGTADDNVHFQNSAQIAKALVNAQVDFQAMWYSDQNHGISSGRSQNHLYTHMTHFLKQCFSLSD
Description: Peptide affinities (KD) were determined by SPR using a Biacore™ 8K device (Cytiva) towards the following proteins: biotinylated His, Avi tag, human FAP (26-760, FAP-H82Q6), biotinylated His, Avi tag, mouse FAP (26-761, FAP-M82Q5), His tag, human DPP4 (34-766, DP4-H82E3), all purchased from AcroBiosystems and His tag, mouse DPP4 (29-760, 954-SE) from R&D Systems. The FAP proteins and their homologous were diluted to a concentration of 2 μg/mL into acetate buffer pH 5.5, then immobilized onto a CM5 sensorchip (Cytiva, BR-1005-30) to reach a response around 2000 R U. The running buffer HBS-EP+pH 7.6 (20× from Teknova CAT. No: H8022) contained 10 mM HEPES pH 7.6, 150 mM NaCl, 3 mM EDTA, 0.05% Tween20 and 2% DMSO. Experiments were carried out at 25° C. using a flow rate of 30 μL/min. Compounds were tested in single cycle kinetic mode at 8 different concentrations. Curve fitting was performed using the Biacore™ 8K evaluation software. The sensorgrams were fitted by applying a 1:1 binding model to calculate kinetic rate constants and equilibrium dissociation constants (KD).
For this assay, the setup had the same conditions (flow rate, running buffer, peptide dilution) as described above for the CM5 method. The oligo CAP reagent obtained in the CAPture Kit (Ref. 28920234) was 1/5 diluted into running buffer and used with a contact time of 300 s at a flow rate of 2 μL/min. The human and mouse FAP constructs described above were used (from AcroBiosystems or produced in house). The FAP proteins were diluted to a concentration of 2 μg/mL into acetate pH 5.5, 0.05% Tween20 and used with a contact time of 600 s at a flow rate of 10 μL/min. The peptides were tested with an association time of 280 s followed by a dissociation time of 3000 s at a flow rate of 30 μL/min. The regeneration was done using the regeneration solution (8 M guanidine-HCl, 1 M NaOH) as obtained with a contact time of 270 s at a flow rate of 10 μL/min. […] The compounds marked with an asterisk were tested against human and mouse DDP4.

[2] = biological target: T2, human FAP (Homo sapiens, UniProt Q12884); assay: Enzymatic FAP competition assay (Z-Gly-Pro-AMC fluorescence), human FAP; type: biochemical; conditions: read-out: h. FAP, Enz., IC50
T2 construct: the biotinylated His, Avi tag, human FAP (26-760, FAP-H82Q6); His; Avi tag (biotinylated); purchased AcroBiosystems FAP-H82Q6
T2 sequence (Q12884 26-760): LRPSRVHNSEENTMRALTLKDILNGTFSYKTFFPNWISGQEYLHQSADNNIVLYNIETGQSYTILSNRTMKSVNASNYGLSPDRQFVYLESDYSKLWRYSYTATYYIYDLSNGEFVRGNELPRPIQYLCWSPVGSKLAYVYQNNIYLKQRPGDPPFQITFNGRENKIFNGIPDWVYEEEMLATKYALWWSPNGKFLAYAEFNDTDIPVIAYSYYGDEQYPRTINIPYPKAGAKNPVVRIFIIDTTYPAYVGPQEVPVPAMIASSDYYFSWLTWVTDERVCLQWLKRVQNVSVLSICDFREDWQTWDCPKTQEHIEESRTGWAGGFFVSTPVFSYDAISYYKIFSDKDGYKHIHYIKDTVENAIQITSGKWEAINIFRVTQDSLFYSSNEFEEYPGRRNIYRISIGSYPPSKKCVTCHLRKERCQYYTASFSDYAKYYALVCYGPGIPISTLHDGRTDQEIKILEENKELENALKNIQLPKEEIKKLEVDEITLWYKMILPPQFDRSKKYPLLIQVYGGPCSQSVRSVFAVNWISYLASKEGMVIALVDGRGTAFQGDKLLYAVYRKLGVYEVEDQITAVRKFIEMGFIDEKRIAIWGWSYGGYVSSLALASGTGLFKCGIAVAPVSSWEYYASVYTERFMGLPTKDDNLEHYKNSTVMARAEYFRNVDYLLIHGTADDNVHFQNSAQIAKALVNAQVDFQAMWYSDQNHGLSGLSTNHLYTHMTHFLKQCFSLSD
Description: (§1) Peptide potencies (IC50) to inhibit the FAP enzymatic activity were determined using a fluorescence-based assay towards the biotinylated His, Avi tag, human FAP (26-760, FAP-H82Q6) and the biotinylated His, Avi tag, mouse FAP (26-761, FAP-M82Q5). Standard assay conditions consisted of 20 μL total volume in white 384-well plates (Greiner, Ref. 784075), in 50 mM phosphate buffer pH 7.5 containing 150 mM NaCl, 0.05% Tween20 and 1% final DMSO. Tested peptides at 14 different concentrations up to 1 μM were added to 0.01 nM human or mouse FAP. The peptides were incubated for 24 hours together with the protein before adding the substrate 50 μM Z-Gly-Pro-AMC (I-1145 from Bachem). Samples were then incubated at 22-24° C. for 4 h before reading the fluorescence at excitation wavelength of 380 nm and emission wavelength of 460 nm using the Tecan Infinite® M1000 PRO. The high control (100% activity) was not containing any peptide, and an internal potent peptide was added at 10 μM concentration for the low control (100% inhibition). IC50 values were calculated by curve fitting using an in-house developed software (Novartis Helios software application) using the method described by Fomenko et al., 2006 (regression algorithms for nonlinear dose-response curve fitting). Following normalization of activity values for the wells to % inhibition (% inhibition=[(high control-sample)/(high control-low control)]x 100). IC50 fitting was carried out from the duplicated points.

[3] = biological target: T1, mouse FAP; assay: Enzymatic FAP competition assay (Z-Gly-Pro-AMC fluorescence), mouse FAP; type: biochemical; conditions: read-out: m. FAP, Enz., IC50
Description: as §1

Row | Molecule | pKd [1] | pIC50 [2] | pIC50 [3]
1 | CCCCC[C@@H]1NC(=O)[C@H](Cc2ccc(OCCN)cc2)NC(=O)[C@H](Cc2ccccc2)N(C)C(=O)CNC(=O)CNC(=O)[C@H]2CCCN2C(=O)[C@H](CC(=O)O)NC(=O)[C@H](Cc2ccc(N)nc2)NC(=O)CNC(=O)[C@H](Cc2c[nH]c3ccccc23)NC1=O [Example A45, Gly-Gly-NMePhe-F(4OEtNH2)-Ahp-Trp-Gly-3PyA(6NH2)-Asp-D-Pro, TFA salt] (cyclo([AEF][Ahp(2)]WG[3Pal(6-NH2)]D[dP]GG[NMeF])) | 9.27 | 9.72 | 9.03
2 | CCCCC[C@@H]1NC(=O)[C@H](Cc2ccc(O)cc2)NC(=O)[C@H](Cc2ccccc2)N(C)C(=O)CNC(=O)[C@H](CCCCN)NC(=O)[C@H]2CCCN2C(=O)[C@H](CC(=O)O)NC(=O)[C@H](Cc2ccc(O)cc2)NC(=O)CNC(=O)[C@H](Cc2c[nH]c3ccccc23)NC1=O [Example A53, Lys-Gly-NMePhe-Tyr-Ahp-Trp-Gly-Tyr-Asp-D-Pro, TFA salt] (cyclo([Ahp(2)]WGYD[dP]KG[NMeF]Y)) | 9.14 | 9.40 | 8.89
3 | CCCCC[C@@H]1NC(=O)[C@H](Cc2ccc(O)cc2)NC(=O)[C@H](Cc2ccccc2)N(C)C(=O)CNC(=O)CNC(=O)[C@H]2CCCN2C(=O)[C@H](CC(=O)O)NC(=O)[C@H](CCCNC(=O)N2CCN(CC(=O)O)CC2)NC(=O)CNC(=O)[C@H](Cc2c[nH]c3ccccc23)NC1=O [Example A4, Gly-Gly-NMePhe-Tyr-Ahp-Trp-Gly-Orn(COPipzaa)-Asp-D-Pro, TFA salt] (cyclo([Ahp(2)]WG[Orn]([CO-Piperazinyl(4-CH2COOH)])D[dP]GG[NMeF]Y)) | 9.33 | 9.69 | 9.24
4 | CCCCC[C@@H]1NC(=O)[C@H](Cc2ccc(O)cc2)NC(=O)[C@H](Cc2ccccc2)N(C)C(=O)CNC(=O)[C@@H](CO)NC(=O)[C@H]2CCCN2C(=O)[C@H](CC(=O)O)NC(=O)[C@H](Cc2ccc(O)cc2)NC(=O)CNC(=O)[C@H](Cc2c[nH]c3ccccc23)NC1=O [Example A69, D-Ser-Gly-NMePhe-Tyr-Ahp-Trp-Gly-Tyr-Asp-D-Pro] (cyclo([Ahp(2)]WGYD[dP][dS]G[NMeF]Y)) | 9.65 | 9.92 | 9.33
5 | CCCCC[C@@H]1NC(=O)[C@H](Cc2ccc(O)cc2)NC(=O)[C@H](Cc2ccccc2)N(C)C(=O)CNC(=O)[C@H](CCCCN)NC(=O)[C@H]2CCCN2C(=O)[C@H](CC(=O)O)NC(=O)[C@H](Cc2ccc(O)cc2)NC(=O)CNC(=O)[C@H](Cc2c[nH]c3c(Cl)cccc23)NC1=O [Example A25, Lys-Gly-NMePhe-Tyr-Ahp-W(7Cl)-Gly-Tyr-Asp-D-Pro, TFA salt] (cyclo([Ahp(2)][Trp(7-Cl)]GYD[dP]KG[NMeF]Y)) | 9.33 | 9.68 | 9.07
6 | CCCCC[C@@H]1NC(=O)[C@H](Cc2ccc(CNC(C)=O)cc2)NC(=O)[C@H](Cc2ccccc2)N(C)C(=O)CNC(=O)CNC(=O)[C@H]2CCCN2C(=O)[C@H](CC(=O)O)NC(=O)[C@H](Cc2ccc(O)cc2)NC(=O)CNC(=O)[C@H](Cc2c[nH]c3ccccc23)NC1=O [Example A28, Gly-Gly-NMePhe-F(4AmAc)-Ahp-Trp-Gly-Tyr-Asp-D-Pro] (cyclo(GG[NMeF][Phe(4-CH2NH2)](Ac)[Ahp(2)]WGYD[dP])) | 9.28 | 10.20 | 9.48
7 | Gly-Gly-NMePhe-F(4amPEG2NHRDOTAGA-Ga)-hS(Pr)-Trp-Gly-K(COpipzaa)-AsI-D-Pro (cyclo(GG[NMeF][F(4amPEG2NHRDOTAGA-Ga)][hS(Pr)]WGK(COpipzaa)D[dP]); also: Ga complex) [Example C39] | > 10.62 | 10.82 | 10.29
8 | CCCCC[C@@H]1NC(=O)[C@H](Cc2ccc(CNC(=O)COCCOCCNC(=O)CN3CCN(CC(=O)O)CCN(CC(=O)O)CCN(CC(=O)O)CC3)cc2)NC(=O)[C@H](Cc2ccccc2)N(C)C(=O)CNC(=O)CNC(=O)[C@H]2CCCN2C(=O)[C@H](CC(=O)O)NC(=O)[C@H](Cc2ccc(O)cc2)NC(=O)CNC(=O)[C@H](Cc2c[nH]c3ccccc23)NC1=O [Example B16, Gly-Gly-NMePhe-F(4amPEG2NHDOTA)-Ahp-Trp-Gly-Tyr-Asp-D-Pro, TFA salt] (cyclo([Ahp(2)]WGYD[dP]GG[NMeF][Phe(4-CH2NH2)]([AEEA-DOTA]))) | 11.00 | 11.05 | 10.52
9 | CCCCC[C@@H]1NC(=O)[C@H](Cc2ccc(O)cc2)NC(=O)[C@H](Cc2ccccc2)NC(=O)CNC(=O)[C@H](CCCCN)NC(=O)[C@H]2CCCN2C(=O)[C@H](CC(=O)O)NC(=O)[C@H](Cc2ccc(O)cc2)NC(=O)CNC(=O)[C@H](Cc2c[nH]c3ccccc23)NC1=O [Example A22, Lys-Gly-Phe-Tyr-Ahp-Trp-Gly-Tyr-Asp-D-Pro, TFA salt] (cyclo([Ahp(2)]WGYD[dP]KGFY)) | 9.06 | 9.48 | 9.17

Source: patent US20250090699A1, “FAP TARGETING CYCLIC PEPTIDES AND CONJUGATES THEREOF” (Novartis AG, priority 2023, published 2025)
